# Experimental data published in ChEMBL document CHEMBL1153802, “Human plasma-mediated hypoxic activation of indolequinone-based naloxone pro-drugs” (Bioorg Med Chem Lett, 2009).
# System: Plasma
# Assay: Prodrug stability in human plasma assessed as […] release under normoxic condition after 24 hrs by HPLC analysis
# Format: ADME, cell-free
structure (smiles),measurement,value
C=CCN1CC[C@]23c4c5ccc(OC(=O)N(C)CCN(C)C(=O)OCc6c7c(n(C(=O)NCCOCCOCCNC(=O)OC(C)(C)C)c6C)C(=O)C=C(OC)C7=O)c4O[C@H]2C(=O)CC[C@@]3(O)[C@H]1C5,Stability,Unstable
